Where two headings read alike, the source gives them in different places.
Legend:
[1] = system: giant foxtail; assay: Test A pre-/postemergence herbicide test; assay type: in vivo, Setaria faberi
Outline: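 Visual injury scores on a 0–100 scale (100 = complete control) taken about ten days post-treatment in greenhouse against untreated controls; dash means no result. Treatments: preemergence soil spray and postemergence spray to runoff on one- to two-leaf plants 2 to 10 cm tall, surfactant-containing formulation.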

[2] = system: bermudagrass; assay: Test C pre-/postemergence herbicide test; assay type: in vivo, Cynodon dactylon; conditions: for pest or weed control at 500 g/ha: read-out: Bermudagrass plant response rating
Outline: (§1)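 Visual ratings on a 0–100 scale (100 = complete control) made versus untreated controls after 12 to 14 greenhouse days. Test chemicals, formulated in surfactant-containing non-phytotoxic solvent, applied preemergence to planted seeds or postemergence to 1- to 4-leaf plants (2 to 18 cm).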

[3] = system: cocklebur; assay: Test C pre-/postemergence herbicide test; assay type: in vivo, Xanthium strumarium; conditions: for pest or weed control at 62 g/ha / pest or weed control at 125 g/ha / pest or weed control at 250 g/ha: read-out: Plant response rating, Cocklebur
Outline: as §1

[4] = system: eastern black nightshade; assay: Test C pre-/postemergence herbicide test; assay type: in vivo, Solanum ptycanthum; conditions: for Nightshade plant response rating: Preemergence, scale 0 to 100, 0 no effect, 100 complete control
Outline: as §1

[5] = system: yellow nutsedge; assay: Test C pre-/postemergence herbicide test; assay type: in vivo, Cyperus esculentus
Outline: as §1

[6] = Postemergence, 500 g ai/ha, 0 to 100 scale, 0 no effect, 100 complete control
[7] = Postemergence, 2000 g ai/ha, 0 to 100 scale, 0 no effect, 100 complete control
[8] = Preemergence, 2000 g ai/ha, visual rating, 0 to 100 scale (0 no effect, 100 complete control)
[9] = preemergence, 500 g ai/ha, visual injury, 0 to 100 scale (0 no effect, 100 complete control)
[10] = 62 g ai/ha, preemergence, scale 0 to 100, 0 no effect, 100 complete control
[11] = 125 g ai/ha, scale 0 (no effect) to 100 (complete control), visual, 12 to 14 days, preemergence
[12] = 250 g ai/ha, scale 0-100, preemergence
[13] = Preemergence, 500 g ai/ha, scale 0 to 100, 0 no effect, 100 complete control
[14] = 62 g ai/ha, preemergence, scale 0 to 100
[15] = Postemergence, 500 g ai/ha, scale 0 to 100
[16] = Postemergence, 250 g ai/ha, scale 0 to 100, 0 no effect, 100 complete control
[17] = postemergence, 125 g ai/ha, scale 0 to 100
[18] = postemergence, 62 g ai/ha, scale 0 to 100
[19] = 500 g ai/ha, scale 0 to 100 (0 no effect, 100 complete control), visual, 12 to 14 days, preemergence
[20] = Cynodon dactylon, pre-emergence, 312 h, 62 g ai/ha, preemergence, scale 0 to 100, 0 no effect, 100 complete control, read-out: Plant response rating, Bermudagrass
[21] = Cynodon dactylon, pre-emergence, 312 h, 125 g ai/ha, scale 0 (no effect) to 100 (complete control), visual, 12 to 14 days, read-out: Plant response rating, Bermudagrass
[22] = Cynodon dactylon, pre-emergence, 312 h, Preemergence, 500 g ai/ha, scale 0 to 100, 0 no effect, 100 complete control
[23] = Xanthium strumarium, pre-emergence, 312 h, 62 g ai/ha, preemergence, scale 0 to 100
[24] = Xanthium strumarium, pre-emergence, 312 h, 125 g ai/ha, scale 0 (no effect) to 100 (complete control), visual, 12 to 14 days
[25] = pre-emergence, 62 g ai/ha, preemergence, scale 0 to 100, read-out: Plant response rating, Nightshade
[26] = pre-emergence, 125 g ai/ha, scale 0 (no effect) to 100 (complete control), visual, 12 to 14 days, read-out: Plant response rating, Nightshade
[27] = Cyperus, pre-emergence, 62 g ai/ha, preemergence, scale 0 to 100, read-out: Plant response rating, Nutsedge, Yellow
[28] = Cyperus, pre-emergence, 125 g ai/ha, scale 0 (no effect) to 100 (complete control), visual, 12 to 14 days, read-out: Plant response rating, Nutsedge, Yellow

Compound | Foxtail, Giant plant response rating [1, 6] | Plant response rating, Foxtail, Giant [1, 7] | Foxtail, Giant plant response rating [1, 8] | Foxtail, Giant plant response rating [1, 9] | Plant response rating, Bermudagrass [2, 10] | Plant response rating, Bermudagrass [2, 11] | Plant response rating, Bermudagrass [2, 12] | Bermudagrass plant response rating [2, 13] | Plant response rating, Cocklebur [3, 14] | Plant response rating, Cocklebur [3, 11] | Plant response rating, Cocklebur [3, 12] | Cocklebur plant response rating [3, 13] | Plant response rating, Nightshade [4, 14] | Plant response rating, Nightshade [4, 11] | Plant response rating, Nightshade [4, 12] | Nightshade plant response rating ([4]; 500 g ai/ha) | Plant response rating, Nutsedge, Yellow [5, 14] | Plant response rating, Nutsedge, Yellow [5, 11] | Plant response rating, Nutsedge, Yellow [5, 12] | Nutsedge, Yellow plant response rating [5, 13] | other results
CCc1nc(C(C)(C)C)sc1C(=O)Nc1cccc(C(=O)N(CC)CC)c1 [Compound 205] | 10 | 25 | 100 | 85 | 90 | 100 | 100 | 100 | 0 | 0 | 0 | 0 | 80 | 100 | 100 | 100 | 0 | 0 | 0 | 10 | –
C=CCNC(=O)c1cccc(NC(=O)c2cc(C(C)(C)C)nn2C)n1 [Compound 318] | 50 | 90 | 85 | 40 | 10 | 70 | 90 | 95 | 0 | 0 | 0 | 0 | 80 | 90 | 95 | – | 0 | 0 | 0 | – | Bermudagrass plant response rating [2, 15]: 80; Cocklebur plant response rating [3, 15]: 100; Plant response rating, Cocklebur [3, 16]: 10; Plant response rating, Cocklebur [3, 17]: 5; Plant response rating, Cocklebur [3, 18]: 0; Plant response rating, Nightshade [4, 19]: 95; Plant response rating, Nutsedge, Yellow [5, 19]: 0; Nutsedge, Yellow plant response rating [5, 15]: 0; Plant response rating, Nutsedge, Yellow [5, 16]: 0; Plant response rating, Nutsedge, Yellow [5, 17]: 0; Plant response rating, Nutsedge, Yellow [5, 18]: 0
CCN(CC)C(=O)c1cccc(NC(=O)c2sc(C(C)(C)C)nc2C)c1 [Compound 199] | 25 | 65 | 100 | 80 | 55 | 85 | 100 | 100 | 0 | 0 | 0 | 0 | 85 | 95 | 100 | 100 | 0 | 0 | 0 | 0 | –
CCN(CC)C(=O)c1cccc(NC(=O)c2cc(C(C)(C)C)nn2C)n1 [Compound 314] | 30 | 70 | 90 | 60 | 10 | 60 | 60 | 90 | 0 | 0 | 0 | 20 | 60 | 85 | 90 | – | 0 | 0 | 0 | – | Plant response rating, Nightshade [4, 19]: 100; Plant response rating, Nutsedge, Yellow [5, 19]: 0
CCn1nc(C(C)(C)C)cc1C(=O)Nc1cc(C(=O)N(C)C)ccn1 [Compound 156, 2-[[[3-(1,1-dimethylethyl)-1-ethyl-1H-pyrazol-5-yl]carbonyl]amino]-N,N-dimethyl-4-pyridinecarboxamide] | – | – | – | – | – | – | – | – | – | – | – | – | – | – | – | 100 | – | – | – | 85 | pest or weed control at 16 g/ha ([2]; Cynodon dactylon, pre-emergence, 312 h, 16 g ai/ha, scale 0 to 100, 0 no effect, 100 complete control, last section of Table C (species set of preemergence test), read-out: Plant response rating, Bermudagrass): 0%; pest or weed control at 31 g/ha ([2]; Cynodon dactylon, pre-emergence, 312 h, 31 g ai/ha, scale 0 to 100, 0 no effect, 100 complete control, last section of Table C (species set of preemergence test), read-out: Plant response rating, Bermudagrass): 60%; pest or weed control at 62 g/ha [2, 20]: 88%; pest or weed control at 125 g/ha [2, 21]: 93%; pest or weed control at 250 g/ha ([2]; Cynodon dactylon, pre-emergence, 312 h, 250 g ai/ha, scale 0 to 100 (0 no effect, 100 complete control), visual, 12 to 14 days, read-out: Plant response rating, Bermudagrass): 95%; pest or weed control at 500 g/ha [2, 22]: 95%; pest or weed control at 62 g/ha [3, 23]: 63%; pest or weed control at 125 g/ha [3, 24]: 98%; pest or weed control at 250 g/ha ([3]; Xanthium strumarium, pre-emergence, 312 h, 250 g ai/ha, scale 0 to 100 (0 no effect, 100 complete control), visual, 12 to 14 days): 100%; pest or weed control at 500 g/ha ([3]; Xanthium strumarium, pre-emergence, 312 h, Preemergence, 500 g ai/ha, scale 0 to 100, 0 no effect, 100 complete control, read-out: Cocklebur plant response rating): 100%; pest or weed control at 62 g/ha [4, 25]: 75%; pest or weed control at 125 g/ha [4, 26]: 93%; pest or weed control at 62 g/ha [5, 27]: 35%; pest or weed control at 125 g/ha [5, 28]: 60%
Cc1nn(C(C)(C)C)nc1C(=O)Nc1cccc(C(=S)N(C)C)c1 [Compound 419] | – | – | – | – | 100 | – | 100 | – | 0 | – | 45 | – | 85 | – | – | – | 0 | – | – | – | Plant response rating (0 = no effect, 100 = complete control), Bermudagrass ([2]; 125 g ai/ha, preemergence): 100; Plant response rating, Bermudagrass [2, 19]: 100; Plant response rating (0 = no effect, 100 = complete control), Cocklebur ([3]; 125 g ai/ha, preemergence): 25; Plant response rating, Cocklebur [3, 19]: 70; Plant response rating (0 = no effect, 100 = complete control), Nightshade ([4]; 125 g ai/ha, preemergence): 95; Plant response rating, Nightshade [4, 19]: 100; Plant response rating (0 = no effect, 100 = complete control), Nutsedge, Yellow ([5]; 125 g ai/ha, preemergence): 0; Plant response rating, Nutsedge, Yellow [5, 19]: 0
CCNC(=O)c1cccc(NC(=O)c2nn(C(C)(C)C)cc2Br)c1 [Compound 221, 4-bromo-1-(1,1-dimethylethyl)-N-[3-[(ethylamino)carbonyl]phenyl]-1H-pyrazole-3-carboxamide] | – | – | – | – | – | – | – | – | – | – | – | – | – | – | – | – | – | – | – | – | pest or weed control at 62 g/ha [2, 20]: 0%; pest or weed control at 125 g/ha [2, 21]: 10%; pest or weed control at 250 g/ha ([2]; Cynodon dactylon, pre-emergence, 312 h, 250 g ai/ha, scale 0-100, read-out: Plant response rating, Bermudagrass): 85%; pest or weed control at 500 g/ha [2, 22]: 85%; pest or weed control at 62 g/ha [3, 23]: 0%; pest or weed control at 125 g/ha [3, 24]: 0%; pest or weed control at 250 g/ha ([3]; Xanthium strumarium, pre-emergence, 312 h, 250 g ai/ha, scale 0-100): 0%; pest or weed control at 62 g/ha [4, 25]: 30%; pest or weed control at 125 g/ha [4, 26]: 50%; pest or weed control at 250 g/ha ([4]; pre-emergence, 250 g ai/ha, scale 0-100, read-out: Plant response rating, Nightshade): 70%; pest or weed control at 500 g/ha ([4]; pre-emergence, 500 g ai/ha, scale 0 to 100 (0 no effect, 100 complete control), visual, 12 to 14 days, read-out: Plant response rating, Nightshade): 100%; pest or weed control at 62 g/ha [5, 27]: 0%; pest or weed control at 125 g/ha [5, 28]: 0%; pest or weed control at 250 g/ha ([5]; Cyperus, pre-emergence, 250 g ai/ha, scale 0-100, read-out: Plant response rating, Nutsedge, Yellow): 0%; pest or weed control at 500 g/ha ([5]; Cyperus, pre-emergence, 500 g ai/ha, scale 0 to 100 (0 no effect, 100 complete control), visual, 12 to 14 days, read-out: Plant response rating, Nutsedge, Yellow): 0%

From patent publication US20060069132A1, “Azolecarboxamide herbicides” (priority 2004, published 2006)
